Experimental findings from patent US8912181B2 (Taiho Pharmaceutical Co., Ltd., priority 2011, dated 2014) are described below.

For orientation: IC50 means the concentration needed to halve the response being measured.

Assay [1] has as its target human HSP90 alpha protein (N-terminal, amino acids 2 to 236) (Homo sapiens (Human), UniProt P07900). Nature of the assay: Determination of HSP90-binding activity (AlphaScreen competitive assay with biotinylated geldanamycin). Particulars: inhibition of binding of biotinylated geldanamycin to purified HSP90 N-terminal protein, read-out: HSP-binding activity IC50. The procedure: First, a purified HSP90 solution was prepared as follows: a human HSP90 alpha gene (NCBI Reference Sequence accession no. NM-005348) region corresponding to amino acids 2 to 236 of human HSP90 alpha protein (NCBI Reference Sequence accession no. NP-005339; full length: 732 amino acids) was inserted to pET-19b (Novagen; Merck KGaA) to construct a plasmid pET-HS[…] for expression of the HSP90 N-terminal protein having a His-tag at the N-terminus. E. coli (BL21(DE3), Stratagene Corp.) was transformed with pET-HS[…] and then cultured at 37° C. for 4 hours in the presence of 0.5 mM isopropyl-beta-D-thiogalactopyranoside (Sigma-Aldrich Corp.). The collected E. coli was suspended in a lysis buffer (50 mM Tris-HCl (pH 7.5), 200 mM NaCl) and sonicated. The sonicated cell solution was centrifuged (40,000×g, 20 minutes), and the supernatant was used as a crude extract. This crude extract was fractionated using Ni Sepharose High Performance (GE Healthcare Japan Corp.) chromatography and HiLoad 26/60 Superdex 75 pg (GE Healthcare Japan Corp.). Then, a fraction of HSP90 protein concentrates was prepared in a solution containing 50 mM Tris-HCl (pH 7.5) and 20% glycerol as a purified HSP90 solution. The purified HSP90 solution was divided and stored at -80° C. until use. HSP90-binding activity was determined by an AlphaScreen competitive assay system. […] After reaction at room temperature for 2 hours, biotinylated geldanamycin was added thereto at a concentration of 40 nM/well and further reacted for 1 hour. Detection mix (20 mM HEPES-KOH (pH 7.5), 0.5% BSA, 0.04 mg/mL Nickel Chelate Acceptor beads, 0.04 mg/mL Streptavidin-coated Donor beads) (#6760619C, PerkinElmer, Inc.) was added to each well in an amount equal to the amount of the reaction solution and reacted at room temperature for 1 hour in the dark. Then, fluorescence intensity was measured using Multilabel Plate Reader EnVision (PerkinElmer, Inc.). Percent inhibition (%) of the binding of biotinylated geldanamycin by each compound of the present invention was determined according to the formula shown below with the fluorescence signal of no test substance addition group as a control. […] Percent inhibition (%)=(C-T)/C×100, wherein T: Signal of well with test substance addition C: Signal of well without test substance addition.

The subject of assay [2] is SK-BR-3 cells. Nature of the assay: Determination of cell growth inhibition (crystal violet staining method). The class given is cell-based. Particulars: Homo sapiens; breast cancer cells SK-BR-3, 72 hours culture with test substance. The procedure:
Cell growth was assayed by a crystal violet staining method. SK-BR-3 cells (HTB-30) purchased from American Type Culture Collection were inoculated at a concentration of 5,000 cells/well to a 96-well plate (#353075, BD Biosciences). After culture at 37° C. for 24 hours in a 5% CO2 incubator, each test substance was added thereto, and the cells were further cultured for 72 hours. A 25% glutaraldehyde solution (#17025-25, Nacalai Tesque, Inc.) was added thereto at a concentration of 20 μL/well per 200 μL of the medium, and the plate was incubated at room temperature for 20 minutes to fix the cells. The plate was washed with water and dried. Then, a solution containing 0.05% crystal violet (#038-17792, Wako Pure Chemical Industries, Ltd.) and 20% methanol was added thereto at a concentration of 100 μL/well, and the plate was incubated at room temperature for 20 minutes to stain the cells. The plate was washed with water and dried. A mixed solution of 0.05 M NaH2PO4 and ethanol (mixed in equal amounts) was added thereto at a concentration of 100 μL/well. Absorbance was measured at 540 nm using a microplate reader (MTP-450, Corona Electric Co., Ltd.) and used as an index for the number of cells per well. Percent inhibition (%) of cell growth by each compound of the present invention was determined according to the formula shown below with the absorbance of no drug addition group as a control. […] Percent inhibition (%)=(C−T)/C×100, wherein T: Absorbance of well with test substance addition C: Absorbance of well without test substance addition.

Take `NC(=O)c1ccc(-c2nc(C(F)(F)F)nc3c(-c4cnc5ccccc5c4)cccc23)cc1NC1CCC(O)CC1` (stereo not drawn) [Example 114, 2-(4-Hydroxycyclohexylamino)-4-(8-(quinolin-3-yl)-2-(trifluoromethyl)quinazolin-4-yl)benzamide]: the IC50 is 70 nM in assay [1] and 10 nM in assay [2].
With `NC(=O)c1ccc(-c2ccnc3c(-c4cnc5ccccc5c4)cccc23)cc1NC1CCC(O)CC1` (stereo not drawn) [Example 117, 4-(3,8′-Biquinolin-4′-yl)-2-(4-hydroxycyclohexylamino)benzamide], the 50% inhibitory concentration (IC50) stood at 290 nM in assay [1] and 50 nM in assay [2].
In the same order, the values of `Cn1cc(-c2cn(-c3cccc4c(-c5ccc(C(N)=O)c(N)c5)ccnc34)cn2)cn1` [Example 132, 2-Amino-4-(8-(4-(1-methyl-1H-pyrazol-4-yl)-1H-imidazol-1-yl)quinolin-4-yl)benzamide] are 320 nM and 960 nM.
The corresponding values for `CCNc1cc(-c2cccc3c(-n4cnc(-c5cnn(C)c5)c4)ccnc23)ccc1C(N)=O` [Example 119, 2-(Ethylamino)-4-(4-(4-(1-methyl-1H-pyrazol-4-yl)-1H-imidazol-1-yl)quinolin-8-yl)benzamide] are 830 nM and 840 nM.
In the same order, the values of `COc1cncc(-c2cccc3c(-c4ccc(C(N)=O)c(NC5CCC(O)CC5)c4)nccc23)c1` (stereo not drawn) [Example 24, 2-(4-Hydroxycyclohexylamino)-4-(5-(5-methoxypyridin-3-yl)isoquinolin-1-yl)benzamide] are 650 nM and 690 nM.
`NC(=O)c1ccc(-c2nccc3c(-c4cnc5ccc(CN6CCOCC6)cc5c4)cccc23)cc1NC1CCC(O)CC1` (stereo not drawn) [Example 49, 2-(4-Hydroxycyclohexylamino)-4-(5-(6-(morpholinomethyl)quinolin-3-yl)isoquinolin-1-yl)benzamide]: the half-maximal inhibitory concentration (IC50) in assay [1] stood at 1560 nM; in assay [2] it was 400 nM.
Regarding `CC(C)Nc1cc(-c2nccc3c(-n4cnc(-c5cnn(C)c5)c4)cccc23)ccc1C(N)=O` [Example 61, 2-(Isopropylamino)-4-(5-(4-(1-methyl-1H-pyrazol-4-yl)-1H-imidazol-1-yl)isoquinolin-1-yl)benzamide], the IC50 is 190 nM in assay [1] and 70 nM in assay [2].
The corresponding values for `CC(C)(C)Nc1cc(-c2cc(C(F)(F)F)nc3c(-n4cnc(-c5cnn(C(F)F)c5)c4)cccc23)ccc1C(N)=O` [Example 92, 2-(Tert-butylamino)-4-(8-(4-(1-difluoromethyl-1H-pyrazol-4-yl)-1H-imidazol-1-yl)-2-(trifluoromethyl)quinolin-4-yl)benzamide] are 790 nM and 20 nM.
`Cn1cc(-c2cn(-c3cccc4c(-c5ccc(C(N)=O)c(NCC6CC6)c5)cc(C(F)(F)F)nc34)cn2)cn1` [Example 65, 2-(Cyclopropylmethylamino)-4-(8-(4-(1-methyl-1H-pyrazol-4-yl)-1H-imidazol-1-yl)-2-(trifluoromethyl)quinolin-4-yl)benzamide] returned a half-inhibitory concentration (IC50) in assay [2] of 10 nM.
Turning to `Cn1cc(-c2cn(-c3cccc4c(-c5ccc(C(N)=O)c(N)c5)nc(C(F)(F)F)nc34)cn2)cn1` [Example 4, 2-Amino-4-(8-(4-(1-methyl-1H-pyrazol-4-yl)-1H-imidazol-1-yl)-2-(trifluoromethyl)quinazolin-4-yl)benzamide], the figures for the IC50 in assay [1] and in assay [2] were 340 nM and 280 nM, respectively.
Consider `NC(=O)c1ccc(-c2nccc3c(-c4cncnc4)cccc23)cc1NC1CCC(O)CC1` (stereo not drawn) [Example 43, 2-(4-Hydroxycyclohexylamino)-4-(5-(pyrimidin-5-yl)isoquinolin-1-yl)benzamide], for which the figures for the half-inhibitory concentration (IC50) in assay [1] and in assay [2] were 690 nM and 1100 nM, respectively.
Regarding `NC(=O)c1ccc(-c2cc(C(F)(F)F)nc3c(-c4cnc5ccccc5c4)cccc23)cc1N` [Example 110, 2-Amino-4-(2′-(trifluoromethyl)-3,8′-biquinolin-4′-yl)benzamide], the IC50 in assay [1] stood at 380 nM; in assay [2], 100 nM.
For `NC(=O)c1ccc(-c2nccc3c(-c4cncc(N)c4)cccc23)cc1NC1CCC(O)CC1` (stereo not drawn) [Example 2, 4-(5-(5-Aminopyridin-3-yl)isoquinolin-1-yl)-2-(4-hydroxycyclohexylamino)benzamide], in assay [2], the IC50 was found to be 150 nM.
As to `Cn1cc(-c2cn(-c3cccc4c(-c5ccc(C(N)=O)cc5N)cc(C(F)(F)F)nc34)cn2)cn1` [Example 73, 3-Amino-4-(8-(4-(1-methyl-1H-pyrazol-4-yl)-1H-imidazol-1-yl)-2-(trifluoromethyl)quinolin-4-yl)benzamide], the IC50 in assay [1] amounted to 190 nM; in assay [2] it was 70 nM.
The corresponding values for `Cc1cc2c(-n3cnc(-c4cnn(C)c4)c3)cccc2c(-c2ccc(C(N)=O)c(N)c2)n1` [Example 71, 2-Amino-4-(3-methyl-5-(4-(1-methyl-1H-pyrazol-4-yl)-1H-imidazol-1-yl)isoquinolin-1-yl)benzamide] are 170 nM and 210 nM.
On to `CC(C)(C)Nc1cc(-c2cc(C(F)(F)F)nc3c(-n4cnc(-c5ccccc5)c4)cccc23)ccc1C(N)=O` [Example 107, 2-(Tert-butylamino)-4-(8-(4-phenyl-1H-imidazol-1-yl)-2-(trifluoromethyl)quinolin-4-yl)benzamide], for which inhibition in assay [2] was half-maximal at 240 nM (IC50).
On the same count and under the same terms, in the case of `Cn1cc(-c2cn(-c3cccc4c(-c5ccc(C(N)=O)c(NC6CCCCCC6)c5)nccc34)cn2)cn1` [Example 63, 2-(Cycloheptylamino)-4-(5-(4-(1-methyl-1H-pyrazol-4-yl)-1H-imidazol-1-yl)isoquinolin-1-yl)benzamide] it was 30 nM; in that of `CCNc1cc(-c2nccc3c(-n4cnc(-c5cnn(C)c5)c4)cccc23)ccc1C(N)=O` [Example 1, 2-(Ethylamino)-4-(5-(4-(1-methyl-1H-pyrazol-4-yl)-1H-imidazol-1-yl)isoquinolin-1-yl)benzamide], 120 nM; in that of `NC(=O)c1ccc(-c2nccc3c(-n4cnc(Br)c4)cccc23)cc1NC1CCC(O)CC1` (stereo not drawn) [Example 54, 4-(5-(4-Bromo-1H-imidazol-1-yl)isoquinolin-1-yl)-2-(4-hydroxycyclohexylamino)benzamide], 480 nM.
As for `Cn1cc(-c2cn(-c3cccc4c(-c5ccc(C(N)=O)c(N)c5)cc(C5CC5)nc34)cn2)cn1` [Example 106, 2-Amino-4-(2-cyclopropyl-8-(4-(1-methyl-1H-pyrazol-4-yl)-1H-imidazol-1-yl)quinolin-4-yl)benzamide], in assay [1], the IC50 was determined as 100 nM.
The compound `NCC(=O)OC1CCC(Nc2cc(-c3nccc4c(-c5cnc6ccccc6c5)cccc34)ccc2C(N)=O)CC1` (stereo not drawn) [Example 33, 4-(2-Carbamoyl-5-(5-(quinolin-3-yl)isoquinolin-1-yl)phenylamino)cyclohexyl-2-aminoacetate] gave a half-maximal inhibitory concentration (IC50) in assay [2] of 80 nM.
Still for that read-out and setting: with `CC(C)Cn1cc(-c2cn(-c3cccc4c(-c5ccc(C(N)=O)c(NC6CCC(O)CC6)c5)nccc34)cn2)cn1` (stereo not drawn) [Example 52, 2-(4-Hydroxycyclohexylamino)-4-(5-(4-(1-isobutyl-1H-pyrazol-4-yl)-1H-imidazol-1-yl)isoquinolin-1-yl)benzamide] the figure was 110 nM; with `CCNc1cc(-c2cc(C(F)(F)F)nc3c(-n4cnc(-c5cnn(C(F)F)c5)c4)cccc23)ccc1C(N)=O` [Example 91, 4-(8-(4-(1-Difluoromethyl-1H-pyrazol-4-yl)-1H-imidazol-1-yl)-2-(trifluoromethyl)quinolin-4-yl)-2-(ethylamino)benzamide], 10 nM.
